Reference: US20170239351A1, “Therapeutic Combinations of a BTK Inhibitor, a PI3K Inhibitor, a JAK-2 Inhibitor, a PD-1 Inhibitor, and/or a PD-L1 Inhibitor” (Acerta Pharma B.V., priority 2014, published 2017)

Columns and labels:
[1] = system: regulatory T cell (Treg) development; test: Regulatory T cell (Treg) development; type: cell-based
Brain penetration study = conditions: in vivo
ID8 ovarian cancer = test: ID8 syngeneic orthotropic ovarian cancer murine model; type: in vivo, mice
Source text: Human ovarian cancer models, including the ID8 syngeneic orthotropic ovarian cancer model and other animal models, are described in Fong and Kakar, J. Ovarian Res. 2009, 2, 12; Greenaway, et al., Gynecol. Oncol. 2008, 108, 385-94; Urzua, et al., Tumour Biol. 2005, 26, 236-44; Janat-Amsbury, et al., Anticancer Res. 2006, 26, 3223-28; Janat-Amsbury, et al., Anticancer Res. 2006, 26, 2785-89. […] The results of the study are shown in FIG. 100, FIG. 101, FIG. 102, FIG. 103, FIG. 104, FIG. 105, FIG. 106, and FIG. 107.
Each cohort consisted of 12 mice. Every two weeks mice are injected with luciferin, and tumor growth was monitored using the Xenogen system (Caliper Life Sciences, PerkinElmer, Hopkinton, Mass., USA). Tumor size was measured by calculated flux.
The experiments were performed as described in Example 7.

[2] = system: human platelet-mediated thrombosis; set-up: species or system VWF HA1 mice (human platelets); conditions: in vivo
Procedure: […]. Injury to the vessel wall of arterioles ([…] diameter) was performed using a pulsed nitrogen dye laser (440 nm, Photonic Instruments) applied through a 20× water-immersion Olympus objective (LUMPlanF1, 0.5 numerical aperature (NA)) of a Zeiss Axiotech vario microscope. Human platelet and wall interactions were visualized by fluorescence microscopy using a system equipped with a Yokogawa CSU-22 spinning disk confocal scanner, iXON EM camera, and 488 nm and 561 nm laser lines to detect BCECF-labeled and rhodamine-labeled platelets, respectively (Revolution XD, Andor Technology). The extent of thrombus formation was assessed for 2 minutes after injury and the area (μm^2) of coverage determined (Image IQ, Andor Technology).
. The BTK inhibitor-treated human platelets were fluorescently labeled and infused continuously through a catheter inserted into the femoral artery. Their behavior in response to laser-induced vascular injury was monitored in real time using two-channel confocal intravital microscopy (Furie and Furie, J. Clin. Invest. 2005, 115(12), 2255-62). Upon induction of arteriole injury untreated platelets rapidly formed thrombi with an average thrombus size of […] (mean±s.e.m.), as shown in FIG. 124 and FIG. 125. […]. […]. […]

[3] = Glutathione binding and depletion in vitro; type: in vitro ADME
BTK = molecular target: T1, BTK (Mus musculus, UniProt P35991); test: Molecular probe assay of irreversible BTK occupancy in MDSCs; type: in vivo, tumor bearing PDA mice; conditions: 15 mg/kg BID; Day 8 at 4 hours post dose (N=5)
T1 construct: MDSCs were purified from tumor bearing PDA mice; endogenous in cells; host or cells: granulocytic and monocytic MDSCs purified from tumour-bearing PDA mice
T1 sequence (P35991 whole entry): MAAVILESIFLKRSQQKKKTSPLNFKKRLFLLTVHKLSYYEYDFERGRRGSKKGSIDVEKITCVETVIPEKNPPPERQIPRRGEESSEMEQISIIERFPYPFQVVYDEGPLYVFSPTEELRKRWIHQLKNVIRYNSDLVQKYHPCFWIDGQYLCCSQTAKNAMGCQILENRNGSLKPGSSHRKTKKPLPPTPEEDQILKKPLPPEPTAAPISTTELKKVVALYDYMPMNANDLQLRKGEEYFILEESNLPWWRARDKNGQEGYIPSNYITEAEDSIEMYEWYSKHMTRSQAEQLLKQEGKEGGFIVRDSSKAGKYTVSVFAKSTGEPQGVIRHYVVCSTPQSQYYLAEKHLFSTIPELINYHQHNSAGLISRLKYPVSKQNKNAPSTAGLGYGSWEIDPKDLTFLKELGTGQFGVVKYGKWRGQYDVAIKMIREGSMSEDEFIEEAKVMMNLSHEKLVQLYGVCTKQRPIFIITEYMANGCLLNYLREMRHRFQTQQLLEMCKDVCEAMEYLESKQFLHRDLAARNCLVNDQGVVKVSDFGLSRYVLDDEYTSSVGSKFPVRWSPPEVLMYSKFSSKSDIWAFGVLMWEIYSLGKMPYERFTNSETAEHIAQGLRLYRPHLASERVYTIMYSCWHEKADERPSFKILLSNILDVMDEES
Source text: A molecular probe assay was used to calculate the percent irreversible occupancy of total BTK.

NSCLC lung tumors = test: Genetic tumor model of NSCLC (KrasLA2); type: in vivo, mice; conditions: 15 mg/kg
Source text: The model is designed to have sporadic expression in single cells of G12D mutant Kras off its own promoter triggered by spontaneous intrachromosomal recombination. Johnson, et al. Nature 2001, 410, 1111-16. While the mutant Kras protein is expressed in a few cells in all tissues, tumor development is seen only in the lung at high penetrance.

NK cells = test: Whole blood NK cell degranulation/ADCC assay with obinutuzumab-opsonised MEC-1 cells; type: cell-based, human; conditions: CD56+/CD107a+ NK cells; n=3 experiments
[4] = Cardiovascular function study in awake telemeterized animals; conditions: single doses through 30 mg/kg

CC#CC(=O)N1CCC[C@H]1c1nc(-c2ccc(C(=O)Nc3ccccn3)cc2)c2c(N)nccn12 [Formula (XVIII), (S)-4-(8-amino-3-(1-(but-2-ynoyl)pyrrolidin-2-yl)imidazo[1,5-a]pyrazin-1-yl)-N-(pyridin-2-yl)benzamide]
effect on Treg development [1]: no effect on regulatory T cell (Treg) development
brain penetration (blood-brain barrier) (Brain penetration study): crosses the blood-brain barrier
cytolytic CD8^+ T cells (ID8 ovarian cancer; 15 mg/kg/BID oral): increase
immunosuppressive B cells in tumor-bearing mice (ID8 ovarian cancer; 15 mg/kg/BID oral): significant reduction
immunosuppressive tumor associated Tregs (ID8 ovarian cancer; 15 mg/kg/BID oral): significant reduction
ID8 ovarian cancer growth (ID8 ovarian cancer; Formula (XVIII) 15 mg/kg BID oral, antibody 150 μg): impairs ID8 ovarian cancer growth
effect on thrombus formation [2]: does not interfere with thrombus formation
glutathione binding and depletion [3]: binds to glutathione but does not deplete glutathione
BTK occupancy in granulocytic and monocytic MDSC compartment (BTK): Complete BTK occupancy
number of tumors (NSCLC lung tumors): fewer overall tumors
tumor volumes versus vehicle (NSCLC lung tumors): significant decrease in tumor volumes
reduction of obinutuzumab-stimulated NK cell degranulation (NK cells): minimal effect
body temperature, cardiovascular, or ECG (including QT interval) parameters [4]: no meaningful changes
